Test results taken from patent US5770691A, “Discriminatory substrates for MMP hydrolysis” (Regents of the University of Minnesota, priority 1995, dated 1998).
Where a SMILES comes first, the peptide text is derived from it. [ ]: non-standard residue; d: D form. The star is where a group is joined. Dnp = O=[N+]([O-])c1ccc(*)c([N+](=O)[O-])c1; Mca = COc1ccc2c(CC(=O)*)cc(=O)oc2c1; Nva = CCC[C@H](N)C(=O)O

Assays:
Solubility of substrate = type: physicochemical; conditions: 2.5% DMSO in water; read-out: soluble up to a concentration
MMP-9 [1] = target: T1, MMP-9 (Homo sapiens, UniProt P14780); assay: Fluorometric hydrolysis of synthetic Mca/Lys(Dnp) substrates by MMP-9; type: biochemical; design: made in house; host or cells: native secreted protein purified from culture medium of HT-1080 cells
From the text: (§1) All MMPs were purified in zymogen form. ProMMP-1 (Suzuki et al., Biochem., 29, 10261 (1990)), proMMP-2 (Okada et al., Eur. J. Biochem., 194, 721 (1990)), and proMMP-3 (Ito et al., Arch. Biochem. Biophys., 267, 211 (1988)) were purified from the culture medium of human rheumatoid synovial cells stimulated with rabbit macrophage-conditioned medium. ProMMP-9 was purified from the culture medium of HT-1080 cells as described in Morodomi et al., Biochem. J., 285, 603 (1992). ProMMP-2 and proMMP-9 were activated by reacting with 1 mM 4-aminophenylmercuric acetate at 37° C. for 45 minutes and 32 hours, respectively. ProMMP-1 was activated by reacting with 1 mM 4-aminophenylmercuric acetate and an equimolar amount of MMP-3 at 37° C. for 6 hours. After activation, MMP-3 was completely removed from MMP-1 by affinity chromatography using an anti-MMP-3 IgG Affi-Gel 10 column. The resin, Affi-Gel 10 (Biorad, Emoryville, Calif.), was coupled to anti-MMP-3 IgG (Okada et al., Annals of Rheumat. Dis., 48, 645 (1989)) per the manufacturer's protocol. Pro-MMP-3 was activated by reacting with 5 μg/mL chymotrypsin at 37° C. for 2 hours. Chymotrypsin was inactivated with 2 mM diisopropylfluorophosphate. The amounts of active MMP-1, MMP-2, and MMP-3 were determined by titration with tissue inhibitor of metalloproteinase-1(TIMP1) over a concentration range of 0.1-3 μg/mL, while the amount of active MMP-9 was determined by titration with TIMP-2 (0.1-3 μg/mL). TIMP-1 was isolated from the medium of HT-1080 cells as described in Morodomi et al., Biochem J., 285, 603 (1992).
(§2) Substrates were prepared as 10 mM stock solutions in dimethylsulfoxide (DMSO). Fluorescent assays were performed at λex =325 nm and λem =393 nm, which should encounter no interference from Trp residues, using a Hitachi fluorescence spectrophotometer F-3010. Initial total hydrolysis assays were run at a substrate concentration of […] to avoid filtering effects. The change in fluorescence at this concentration was 110 based on total hydrolysis of 1 μM substrate. A typical assay was carried out by incubating 100 μL of various concentrations of a substrate with 10 μL of an enzyme solution (2-20 nM) in 50 mM Tris-HCl, pH 7.5, 0.15M NaCl, 10 mM CaCl2, 0.05% Brij 35, 0.02% NaN3. The reaction was stopped by addition of 900 μl of 3% (v/v) glacial acetic acid. MMP-3 activity at pH 6.0 was measured in 50 mM sodium acetate buffer, pH 6.0, instead of Tris-HCl buffer. The amount of substrate hydrolysis was calculated based on the fluorescence values of the Mca-Arg-Pro-Lys-Pro-Gln standard solution after substraction of the reaction blank value (stopping solution added before the enzyme). Individual kinetic parameters (kcat and KM) were determined over a substrate concentration range of 2.5-75 μM and calculated by double reciprocal plots.
Target sequence in this assay (P14780 107-707 limits assumed): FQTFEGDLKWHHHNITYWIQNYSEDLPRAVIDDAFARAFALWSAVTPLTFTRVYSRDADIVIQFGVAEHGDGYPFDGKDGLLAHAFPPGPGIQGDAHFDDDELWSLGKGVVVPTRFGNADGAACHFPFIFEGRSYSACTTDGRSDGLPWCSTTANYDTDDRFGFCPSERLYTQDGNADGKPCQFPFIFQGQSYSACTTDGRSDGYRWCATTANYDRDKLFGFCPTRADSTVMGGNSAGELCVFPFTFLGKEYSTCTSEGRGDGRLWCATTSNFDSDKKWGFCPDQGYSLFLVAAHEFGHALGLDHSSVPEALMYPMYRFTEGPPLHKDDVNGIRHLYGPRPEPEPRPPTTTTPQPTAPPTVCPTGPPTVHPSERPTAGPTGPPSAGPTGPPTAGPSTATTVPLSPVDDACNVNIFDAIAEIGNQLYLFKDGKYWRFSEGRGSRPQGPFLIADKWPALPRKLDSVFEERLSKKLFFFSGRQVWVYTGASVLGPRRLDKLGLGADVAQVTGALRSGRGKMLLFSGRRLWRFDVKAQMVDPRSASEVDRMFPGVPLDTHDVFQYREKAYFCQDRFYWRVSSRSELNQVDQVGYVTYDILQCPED

MMP-9 [2] = target: T1, MMP-9; assay: as above; type: biochemical; design: made in house; host or cells: native secreted protein purified from culture medium of HT-1080 cells; conditions: Edman degradation analysis after 36-72 hour treatment of substrate with MMP
Target sequence in this assay (P14780 107-707 limits assumed): as above

MMP-1 [3] = target: T2, MMP-1 (Homo sapiens, UniProt P03956); assay: Fluorometric hydrolysis of synthetic Mca/Lys(Dnp) substrates by MMP-1; type: biochemical; design: made in house; host or cells: native secreted protein purified from culture medium of human rheumatoid synovial cells
T2 sequence (P03956 100-469): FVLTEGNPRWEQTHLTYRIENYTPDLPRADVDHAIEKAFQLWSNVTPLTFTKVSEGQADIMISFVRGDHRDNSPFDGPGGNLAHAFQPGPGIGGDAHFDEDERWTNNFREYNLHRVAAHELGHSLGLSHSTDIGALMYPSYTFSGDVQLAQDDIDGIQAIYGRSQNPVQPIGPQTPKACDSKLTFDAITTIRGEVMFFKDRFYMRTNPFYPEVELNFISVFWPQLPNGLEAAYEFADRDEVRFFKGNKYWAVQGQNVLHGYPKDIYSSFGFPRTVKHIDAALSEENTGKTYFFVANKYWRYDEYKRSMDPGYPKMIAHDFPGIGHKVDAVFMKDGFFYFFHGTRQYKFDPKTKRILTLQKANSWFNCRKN
From the text: as §1, §2

MMP-2 [4] = target: T3, MMP-2 (Homo sapiens, UniProt P08253); assay: Fluorometric hydrolysis of synthetic Mca/Lys(Dnp) substrates by MMP-2; type: biochemical; design: made in house; host or cells: native secreted protein purified from culture medium of human rheumatoid synovial cells
T3 sequence (P08253 110-660): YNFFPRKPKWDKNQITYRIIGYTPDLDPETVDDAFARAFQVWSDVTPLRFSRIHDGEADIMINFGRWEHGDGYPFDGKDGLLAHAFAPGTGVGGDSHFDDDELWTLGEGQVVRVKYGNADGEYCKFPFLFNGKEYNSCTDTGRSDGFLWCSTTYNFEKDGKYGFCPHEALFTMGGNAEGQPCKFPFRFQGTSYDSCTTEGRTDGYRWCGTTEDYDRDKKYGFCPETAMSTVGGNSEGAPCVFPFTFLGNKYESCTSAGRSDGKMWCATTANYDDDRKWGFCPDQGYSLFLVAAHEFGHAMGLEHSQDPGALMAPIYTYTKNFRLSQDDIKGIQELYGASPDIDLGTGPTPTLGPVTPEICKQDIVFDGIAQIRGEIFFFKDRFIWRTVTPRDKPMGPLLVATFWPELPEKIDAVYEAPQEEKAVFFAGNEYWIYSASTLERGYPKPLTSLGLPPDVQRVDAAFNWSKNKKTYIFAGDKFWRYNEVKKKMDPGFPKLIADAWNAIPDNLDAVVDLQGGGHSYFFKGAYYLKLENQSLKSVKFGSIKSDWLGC
From the text: as §1, §2

MMP-3 [5] = target: T4, MMP-3 (Homo sapiens, UniProt P08254); assay: Fluorometric hydrolysis of synthetic Mca/Lys(Dnp) substrates by MMP-3; type: biochemical; design: made in house; host or cells: native secreted protein purified from culture medium of human rheumatoid synovial cells; conditions: for kcat /Km: pH 7.5
From the text: as §1, §2
Target sequence in this assay (P08254 100-477): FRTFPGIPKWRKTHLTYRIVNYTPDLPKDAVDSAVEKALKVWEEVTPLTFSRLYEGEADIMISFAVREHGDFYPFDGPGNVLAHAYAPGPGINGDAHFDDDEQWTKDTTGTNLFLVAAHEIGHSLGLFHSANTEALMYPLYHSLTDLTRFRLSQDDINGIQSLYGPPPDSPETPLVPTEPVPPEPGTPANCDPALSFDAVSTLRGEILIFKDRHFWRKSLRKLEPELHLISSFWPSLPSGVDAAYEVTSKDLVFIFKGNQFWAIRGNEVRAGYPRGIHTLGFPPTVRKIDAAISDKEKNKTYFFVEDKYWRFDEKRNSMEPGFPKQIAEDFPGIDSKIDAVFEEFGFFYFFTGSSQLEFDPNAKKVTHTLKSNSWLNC

MMP-3 [6] = target: T4, MMP-3; assay: as above; type: biochemical; design: made in house; host or cells: native secreted protein purified from culture medium of human rheumatoid synovial cells; conditions: Edman degradation analysis after 36-72 hour treatment of substrate with MMP
Target sequence in this assay (P08254 100-477): as above

MMP-1 [7] = target: T2, MMP-1; conditions: background, literature; cited from earlier work
MMP-9 [8] = target: T1, MMP-9; conditions: background, literature; cited from earlier work
Target sequence in this assay (P14780 94-707, species assumed): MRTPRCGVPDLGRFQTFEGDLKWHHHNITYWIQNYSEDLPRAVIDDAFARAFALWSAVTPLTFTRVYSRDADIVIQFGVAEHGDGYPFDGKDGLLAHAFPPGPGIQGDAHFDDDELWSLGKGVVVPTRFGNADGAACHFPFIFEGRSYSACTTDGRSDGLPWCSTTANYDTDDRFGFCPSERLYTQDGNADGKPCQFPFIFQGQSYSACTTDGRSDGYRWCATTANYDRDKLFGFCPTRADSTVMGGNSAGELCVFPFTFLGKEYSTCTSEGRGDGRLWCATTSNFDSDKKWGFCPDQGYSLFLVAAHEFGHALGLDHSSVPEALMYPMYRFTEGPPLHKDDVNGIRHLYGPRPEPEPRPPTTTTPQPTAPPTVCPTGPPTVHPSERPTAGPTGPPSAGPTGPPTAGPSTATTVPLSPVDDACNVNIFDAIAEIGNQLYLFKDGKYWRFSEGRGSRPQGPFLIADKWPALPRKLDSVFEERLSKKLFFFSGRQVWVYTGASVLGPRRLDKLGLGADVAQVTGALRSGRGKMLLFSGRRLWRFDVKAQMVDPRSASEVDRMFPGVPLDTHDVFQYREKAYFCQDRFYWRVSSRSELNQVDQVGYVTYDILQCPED

MMP-3 [9] = target: T4, MMP-3; conditions: cited from earlier work; for kcat Km: MMP-3, assay at 37° C.; for hydrolyzed by MMP-3: background, literature
Target sequence in this assay (P08254 100-477, species assumed): as the sequence (P08254 100-477) above

MMP-2 [10] = target: T3, MMP-2; conditions: background, literature; cited from earlier work
MMP-7 = target: T5, MMP-7 (Homo sapiens, UniProt P09237); conditions: background, literature; cited from earlier work
T5 sequence (P09237 95-267): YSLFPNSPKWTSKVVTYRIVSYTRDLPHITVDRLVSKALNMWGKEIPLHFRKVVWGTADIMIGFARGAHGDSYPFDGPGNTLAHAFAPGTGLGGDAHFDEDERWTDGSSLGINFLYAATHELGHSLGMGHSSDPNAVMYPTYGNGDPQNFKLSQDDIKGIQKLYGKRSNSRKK

Row | Molecule | hydrolyzed by MMP-1 (MMP-1 [7]) | kcat Km (MMP-3 [9]) | hydrolyzed by MMP-3 (MMP-3 [9]) | hydrolyzed by MMP-2 (MMP-2 [10]) | hydrolyzed by MMP-7 (MMP-7) | also measured
1 | CCC[C@H](NC(=O)[C@H](CCC(=O)O)NC(=O)[C@@H](NC(=O)[C@@H]1CCCN1C(=O)[C@H](CCCCN)NC(=O)[C@@H]1CCCN1C(=O)[C@H](CCCNC(=N)N)NC(=O)Cc1cc(=O)oc2cc(OC)ccc12)C(C)C)C(=O)N[C@@H](Cc1c[nH]c2ccccc12)C(=O)N[C@@H](CCCNC(=N)N)C(=O)N[C@@H](CCCCNc1ccc([N+](=O)[O-])cc1[N+](=O)[O-])C(N)=O [NFF-3, Mca-Arg-Pro-Lys-Pro-Val-Glu-Nva-Trp-Arg-Lys(Dnp)-NH2] (Mca-RPKPVE[Nva]WRK(Dnp)-NH2) | – | – | – | – | – | solubility (Solubility of substrate): ≥ 250 µM; hydrolysis by MMP-9 (MMP-9 [1]): very slowly hydrolyzed; site of hydrolysis by MMP-9 (MMP-9 [2]): multiple sites; hydrolysis by MMP-1 (MMP-1 [3]): not hydrolyzed; hydrolysis by MMP-2 (MMP-2 [4]): not hydrolyzed; kcat /Km (MMP-3 [5]; MMP-3, 25° C.): 65,700 S^-1 M^-1; kcat /Km (MMP-3 [5]; MMP-3, 37° C.): 218,000 S^-1 M^-1; hydrolysis by MMP-3 (MMP-3 [5]; comparison of synthetic substrates): most rapidly hydrolyzed fluorogenic MMP-3 substrate yet described; hydrolyzed faster than NFF-2 by MMP-3 (MMP-3 [5]; rate relative to NFF-2): 3.7 times; site of hydrolysis by MMP-3 (MMP-3 [6]): Glu--Nva bond
2 | Dnp-Pro-Cha-Gly-Cys(CH3)-His-Ala-Lys(Nma)-NH2 | hydrolyzed | – | – | – | – | hydrolyzed by MMP-9 (MMP-9 [8]): hydrolyzed
3 | Dnp-Pro-Leu-Gly-Leu-Trp-Ala-D-Arg-NH2 (Dnp-PLGLWA[dR]-NH2; SMILES CC(C)C[C@H](NC(=O)CNC(=O)[C@H](CC(C)C)NC(=O)[C@@H]1CCCN1c1ccc([N+](=O)[O-])cc1[N+](=O)[O-])C(=O)N[C@@H](Cc1c[nH]c2ccccc12)C(=O)N[C@@H](C)C(=O)N[C@H](CCCNC(=N)N)C(N)=O) [literature fluorogenic MMP substrate] | hydrolyzed | 2,200 S^-1 M^-1 | hydrolyzed | hydrolyzed | hydrolyzed | –
4 | Mca--Pro--Leu--Gly"--"Leu--Dpa--Ala--Arg--NH2 | hydrolyzed | 23,000 S^-1 M^-1 | hydrolyzed | hydrolyzed | hydrolyzed | –
